The text below walks through data of patent US10376593B2, “Glycoconjugates and their use as potential vaccines against infection by Shigella flexneri” (INSTITUT PASTEUR, priority 2012, dated 2019).

The structures appear in SMILES notation.

This assay deals with mIgG A22-4′ (anti-S. flexneri serotype 6 LPS monoclonal antibody) binding to SF6 LPS. Kind of assay: Inhibition ELISA: binding of mIgG A22-4′ to synthetic oligosaccharides (inhibition of mIgG binding to SF6 LPS). Set-up: species or system mouse. The note with it: concentration of oligosaccharide required to inhibit 50% of mIgG A22-4′ (0.025 μg/ml) binding to purified SF6 LPS (strain Sc544); oligosaccharides tested as propyl glycoside; max 2.5 mM; ≤ = inferior to but close to the value. The procedure:
2) ELISA for IC50 Measurements
The binding of the available mIgG A22-4′ to the synthetic oligosaccharides was measured as previously described (Phalipon A. et al (J. Immunol. 176 1686 (2006)). Briefly, the mIgG concentration to be used was defined in the first step. To do so, a standard curve was established for mIgG A22-4′. The mIgG was incubated at different concentrations, overnight at 4° C., on microtiter plates coated with SF6 LPS purified from the strain SF6 Sc544 at a concentration of […] in a carbonate buffer (pH 9.6), then with PBS-BSA 1% for 30 min at 4° C. After washing with PBS-Tween 20 (0.05%), alkaline phosphatase conjugated anti-mouse IgG was added at a dilution of 1/5,000 (Sigma-Aldrich) for 1 h at 37° C. After washing with PBS-Tween 20 (0.05%), the substrate was added (12 mg of p-nitrophenyl phosphate in 1.2 mL of 1 M Tris-HCl buffer (pH 8.8) and 10.8 mL of 5 M NaCl). Once the color developed, the plate was read at 405 nm Dynatech MR400 microplate reader). A standard curve OD=f([Ab]) was fitted to the quadratic equation Y=aX2+bX+c, where Y is the OD and X is the Ab concentration. A correlation factor (r^2) of 0.99 was routinely obtained. The mIgG A22-4′ concentration to be used in the second step for measuring the IC50, which is defined as the concentration of oligosaccharides required to inhibit 50% of mIgG binding to LPS, was chosen as follows. It corresponds to the minimal concentration of mAb which gives the maximal OD on the standard curve.
The maximum concentration tested was 2.5 mM for all oligosaccharides. Then, measurement of unbound mIgG was performed as described above using microtiter plates coated with purified SF6 LPS. The mAb concentration was deduced from the standard curve. A 100% unbound mIgG concentration was defined for the mAb incubated in the same conditions but without any oligosaccharide. […]
The binding of mIgG A22-4′ to the synthetic and oligo- or polysaccharides was evaluated in inhibition ELISA (Table B)
For orientation: ELISA stands for enzyme-linked immunosorbent assay.

By IC50 is commonly meant the concentration that gives 50% inhibition. With `CCCO[C@@H]1O[C@@H](C)[C@H](O)[C@@H](OC(C)=O)[C@H]1O[C@@H]1O[C@H](CO)[C@H](O)[C@H](O[C@@H]2O[C@H](C(=O)O)[C@H](O[C@@H]3O[C@@H](C)[C@H](O)[C@@H](O)[C@H]3O[C@@H]3O[C@@H](C)[C@H](O)[C@@H](OC(C)=O)[C@H]3O)[C@H](O)[C@H]2O)[C@H]1NC(C)=O` [AcCDABAcC, Propyl 3-O-acetyl-α-L-rhamnopyranosyl-(1→2)-α-L-rhamnopyranosyl-(1→4)-β-D-galactopyranosyluronic acid-(1→3)-2-acetamido-2-deoxy-β-D-galactopyranosyl-(1→2)-3-O-acetyl-α-L-rhamnopyranoside], the concentration for half-maximal inhibition (IC50) was at most 500 µM.

On to `CCCO[C@@H]1O[C@H](CO)[C@H](O)[C@H](O[C@@H]2O[C@H](C(=O)O)[C@H](O[C@@H]3O[C@@H](C)[C@H](O)[C@@H](O)[C@H]3O[C@@H]3O[C@@H](C)[C@H](O)[C@@H](OC(C)=O)[C@H]3O)[C@H](O)[C@H]2O)[C@H]1NC(C)=O` [AcCDAB, Propyl 3-O-acetyl-α-L-rhamnopyranosyl-(1→2)-α-L-rhamnopyranosyl-(1→4)-β-D-galactopyranosyluronic acid-(1→3)-2-acetamido-2-deoxy-β-D-galactopyranoside], for which the IC50 was determined as 36 µM.

As for `CCCO[C@@H]1O[C@H](CO)[C@H](O)[C@H](O[C@@H]2O[C@H](C(=O)O)[C@H](O[C@@H]3O[C@@H](C)[C@H](O)[C@@H](O)[C@H]3O[C@@H]3O[C@@H](C)[C@H](O)[C@@H](O)[C@H]3O)[C@H](O)[C@H]2O)[C@H]1NC(C)=O` [CDAB, Propyl α-L-rhamnopyranosyl-(1→2)-α-L-rhamnopyranosyl-(1→4)-β-D-galactopyranosyluronic acid-(1→3)-2-acetamido-2-deoxy-β-D-galactopyranoside], the IC50 is 16 µM.
